Reference: ChEMBL document CHEMBL3045453, “Novel malyngamide structural analogs: synthesis and biological evaluation” (Med Chem Res, 2013)

Columns and labels:
Format in all cases: functional, cell-based
[1] = tested on: PC-3; assay: Cytotoxicity against Homo sapiens (human) PC3 cells assessed as growth inhibition after 48 hr by trypan blue exclusion assay; conditions: PC-3, 48 h
[2] = Cytotoxicity against Homo sapiens (human) 502713 cells assessed as growth inhibition after 48 hr by trypan blue exclusion assay; conditions: Homo sapiens, 502713, 48 h
[3] = tested on: HOP-62; assay: Cytotoxicity against Homo sapiens (human) HOP62 cells assessed as growth inhibition after 48 hr by trypan blue exclusion assay; conditions: HOP-62, 48 h
[4] = tested on: SK-N-SH; assay: Cytotoxicity against Homo sapiens (human) SK-N-SH cells assessed as growth inhibition after 48 hr by trypan blue exclusion assay
[5] = tested on: IMR-32; assay: Cytotoxicity against Homo sapiens (human) IMR32 cells assessed as growth inhibition after 48 hr by trypan blue exclusion assay; conditions: IMR-32, 48 h
[6] = tested on: HeLa; assay: Cytotoxicity against Homo sapiens (human) HeLa cells assessed as growth inhibition after 48 hr by trypan blue exclusion assay
[7] = tested on: SW-620; assay: Cytotoxicity against Homo sapiens (human) SW620 cells assessed as growth inhibition after 48 hr by trypan blue exclusion assay; conditions: SW-620, 48 h
[8] = tested on: SF-295; assay: Cytotoxicity against Homo sapiens (human) SF295 cells assessed as growth inhibition after 48 hr by trypan blue exclusion assay; conditions: SF-295, 48 h

Measured: IC50

CCCCCCC[C@H](O)C/C=C/CCC(=O)NCCc1ccccc1
164 µM: [4]
> 100 µM: all other assays above

CCCCCCC[C@H](O)C/C=C/CCC(=O)N1CCCC1
120 µM: [4]
> 100 µM: all other assays above

CCCCCCC[C@H](O)C/C=C/CCC(=O)N1CCCCC1
100 µM: [4]
> 100 µM: all other assays above

CCCCCCC[C@H](O)C/C=C/CCC(=O)NCC(C)C
> 100 µM: all assays above

CCCCCCC[C@H](C/C=C/CCC(=O)N1CCCC1)OC
> 100 µM: all assays above

CCCCCCC[C@H](C/C=C/CCC(=O)N1CCCCC1)OC
118 µM: [4]
> 100 µM: all other assays above

CCCCCCC[C@H](C/C=C/CCC(=O)NCC(C)C)OC
> 100 µM: all assays above

CCCCCCC[C@@H](C/C=C/CCC(=O)Nc1ccc(Br)cc1)OC
65.7 µM: [4]
174 µM: [3]
> 100 µM: all other assays above

CCCCCCC[C@@H](C/C=C/CCC(=O)NCc1ccc(C(F)(F)F)cc1)OC
29.8 µM: [2]
62.9 µM: [4]
> 100 µM: all other assays above

CCCCCCC[C@@H](C/C=C/CCC(=O)Nc1c(OC)cc(Cl)cc1OC)OC
64.1 µM: [2]
> 100 µM: all other assays above

CCCCCCC[C@@H](C/C=C/CCC(=O)NCc1ccc(OC)cc1)OC
> 100 µM: all assays above

CCCCCCC[C@@H](C/C=C/CCC(=O)Nc1ccc(Cl)cc1)OC
72.9 µM: [4]
> 100 µM: all other assays above

CCCCCCC[C@@H](C/C=C/CCC(=O)NCc1ccc(F)cc1)OC
> 100 µM: all assays above

CCCCCCC[C@@H](C/C=C/CCC(=O)NCc1ccccc1)OC
> 100 µM: all assays above

CCCCCCC[C@@H](C/C=C/CCC(=O)N1CCCC1)OC
> 100 µM: all assays above

CCCCCCC[C@@H](C/C=C/CCC(=O)N1CCCCC1)OC
> 100 µM: all assays above

CCCCCCC[C@@H](C/C=C/CCC(=O)NCC(C)C)OC
> 100 µM: all assays above

CCCCCCC[C@@H](C/C=C/CCC(=O)NCCc1ccccc1)OC [HERMITAMIDE A]
> 100 µM: all assays above

CCCCCCC[C@H](C/C=C/CCC(=O)NCCc1ccccc1)OC [PHENETHYL(7R,4E)-METHOXYTETRADECENAMIDE]
95.8 µM: [4]
> 100 µM: all other assays above
